# ChEMBL document CHEMBL1212747, “In vitro activity of thimerosal against ocular pathogenic fungi” (2010)
# Key:
# Assay type in all cases: functional
# [1] = test system: Aspergillus niger; assay: Antifungal activity against Aspergillus niger clinical isolates after 48 hrs by broth microdilution method
# [2] = test system: Aspergillus candidus; assay: Antifungal activity against Aspergillus candidus clinical isolates after 48 hrs by broth microdilution method
# [3] = test system: Aspergillus nidulans; assay: Antifungal activity against Aspergillus nidulans clinical isolates after 48 hrs by broth microdilution method
# [4] = test system: Aspergillus ochraceus; assay: Antifungal activity against Aspergillus ochraceus clinical isolates after 48 hrs by broth microdilution method
# [5] = test system: Aspergillus wentii; assay: Antifungal activity against Aspergillus wentii clinical isolates after 48 hrs by broth microdilution method
# [6] = test system: Aspergillus sp.; assay: Antifungal activity against Aspergillus sp. clinical isolates after 48 hrs by broth microdilution method
# [7] = test system: Alternaria alternata; assay: Antifungal activity against Alternaria alternata clinical isolates after 48 hrs by broth microdilution method
# [8] = test system: Fusarium solani; assay: Antifungal activity against Fusarium solani species complex clinical isolates after 48 hrs by broth microdilution method
# [9] = test system: Fusarium verticillioides; assay: Antifungal activity against Fusarium moniliforme species complex clinical isolates after 48 hrs by broth microdilution method
# [10] = test system: Fusarium avenaceum; assay: Antifungal activity against Fusarium avenaceum species complex clinical isolates after 48 hrs by broth microdilution method
# [11] = test system: Fusarium oxysporum; assay: Antifungal activity against Fusarium oxysporum clinical isolates after 48 hrs by broth microdilution method
# [12] = Antifungal activity against Fusarium poae clinical isolates after 48 hrs by broth microdilution method
# [13] = Antifungal activity against Fusarium lateritium clinical isolates after 48 hrs by broth microdilution method
# [14] = test system: Fusarium sp.; assay: Antifungal activity against Fusarium sp. clinical isolates after 48 hrs by broth microdilution method
# [15] = test system: Aspergillus flavus; assay: Antifungal activity against Aspergillus flavus species complex clinical isolates after 48 hrs by broth microdilution method
# [16] = test system: Aspergillus fumigatus; assay: Antifungal activity against Aspergillus fumigatus species complex clinical isolates after 48 hrs by broth microdilution method
# [17] = test system: Aspergillus oryzae; assay: Antifungal activity against Aspergillus oryzae species complex clinical isolates after 48 hrs by broth microdilution method
# [18] = test system: Aspergillus versicolor; assay: Antifungal activity against Aspergillus versicolor species complex clinical isolates after 48 hrs by broth microdilution method
# [19] = Fusarium sp., 48 h, read-out: MIC90
compound,measurement,setting,value
C[C@@H]1[C@H](O)[C@@H](C)/C=C/C=C/C=C/C=C/C=C/C=C/C=C/[C@H](O[C@@H]2O[C@H](C)[C@@H](O)[C@H](N)[C@@H]2O)C[C@@H]2O[C@](O)(C[C@@H](O)C[C@@H](O)[C@H](O)CC[C@@H](O)C[C@@H](O)CC(=O)O[C@H]1C)C[C@H](O)[C@H]2C(=O)O [AMPHOTERICIN B],MIC,[1],1 µg/mL
same,MIC50,[1],1 µg/mL
same,MIC90,[1],2 µg/mL
same,MIC,[2],1 µg/mL
same,MIC50,[2],1 µg/mL
same,MIC90,[2],2 µg/mL
same,MIC,[3],1 µg/mL
same,MIC50,[3],1 µg/mL
same,MIC90,[3],2 µg/mL
same,MIC,[4],1 µg/mL
same,MIC50,[4],1 µg/mL
same,MIC90,[4],2 µg/mL
same,MIC,[5],1 µg/mL
same,MIC50,[5],1 µg/mL
same,MIC90,[5],2 µg/mL
same,MIC,[6],1 µg/mL
same,MIC50,[6],1 µg/mL
same,MIC90,[6],2 µg/mL
same,MIC,[7],0.125 µg/mL
same,MIC50,[7],0.125 µg/mL
same,MIC90,[7],0.125 µg/mL
same,MIC,[8],1 µg/mL
same,MIC50,[8],1 µg/mL
same,MIC90,[8],2 µg/mL
same,MIC,[9],2 µg/mL
same,MIC50,[9],2 µg/mL
same,MIC90,[9],2 µg/mL
same,MIC,[10],2 µg/mL
same,MIC50,[10],2 µg/mL
same,MIC90,[10],4 µg/mL
same,MIC,[11],1 µg/mL
same,MIC50,[11],1 µg/mL
same,MIC90,[11],2 µg/mL
same,MIC50,[12],1 µg/mL
same,MIC90,[12],2 µg/mL
same,MIC50,[13],1 µg/mL
same,MIC90,[13],2 µg/mL
same,MIC90,[14],2 µg/mL
same,MIC,"[14]; Fusarium sp., 48 h",1 µg/mL
same,MIC50,"[14]; Fusarium sp., 48 h",1 µg/mL
same,MIC90,[14]; [19],2 µg/mL
same,MIC,[15],2 µg/mL
same,MIC50,[15],2 µg/mL
same,MIC90,[15],2 µg/mL
same,MIC,[16],1 µg/mL
same,MIC50,[16],1 µg/mL
same,MIC90,[16],2 µg/mL
same,MIC,[17],1 µg/mL
same,MIC50,[17],1 µg/mL
same,MIC90,[17],2 µg/mL
same,MIC,[18],1 µg/mL
same,MIC50,[18],1 µg/mL
same,MIC90,[18],2 µg/mL
CC[C@H](C)C[C@H](C)CCCCCCCCC(=O)N[C@H]1C[C@@H](O)[C@@H](NCCN)NC(=O)[C@@H]2[C@@H](O)CCN2C(=O)[C@H]([C@H](O)CCN)NC(=O)[C@H]([C@H](O)[C@@H](O)c2ccc(O)cc2)NC(=O)[C@@H]2C[C@@H](O)CN2C(=O)[C@H]([C@@H](C)O)NC1=O [CASPOFUNGIN],MIC90,[14]; [19],> 16 µg/mL
OC(Cn1cncn1)(Cn1cncn1)c1ccc(F)cc1F [FLUCONAZOLE],MIC90,[14]; [19],> 256 µg/mL
Nc1nc(=O)[nH]cc1F [FLUCYTOSINE],MIC90,[14]; [19],> 64 µg/mL
CCC(C)n1ncn(-c2ccc(N3CCN(c4ccc(OCC5COC(Cn6cncn6)(c6ccc(Cl)cc6Cl)O5)cc4)CC3)cc2)c1=O (stereo not given) [ITRACONAZOLE],MIC90,[14]; [19],> 16 µg/mL
CC(=O)N1CCN(c2ccc(OCC3COC(Cn4ccnc4)(c4ccc(Cl)cc4Cl)O3)cc2)CC1 (stereo not given) [KETOCONAZOLE],MIC90,[14]; [19],> 16 µg/mL
C[C@@H]1C/C=C/C=C/C=C/C=C/[C@H](O[C@@H]2O[C@H](C)[C@@H](O)[C@H](N)[C@@H]2O)C[C@@H]2O[C@](O)(C[C@@H](O)C[C@H]3O[C@@H]3/C=C/C(=O)O1)C[C@H](O)[C@H]2C(=O)O [NATAMYCIN],MIC,[1],4 µg/mL
same,MIC50,[1],4 µg/mL
same,MIC90,[1],32 µg/mL
same,MIC,[2],4 µg/mL
same,MIC50,[2],4 µg/mL
same,MIC90,[2],32 µg/mL
same,MIC,[3],4 µg/mL
same,MIC50,[3],4 µg/mL
same,MIC90,[3],32 µg/mL
same,MIC,[4],4 µg/mL
same,MIC50,[4],4 µg/mL
same,MIC90,[4],32 µg/mL
same,MIC,[5],4 µg/mL
same,MIC50,[5],4 µg/mL
same,MIC90,[5],32 µg/mL
same,MIC,[6],32 µg/mL
same,MIC50,[6],32 µg/mL
same,MIC90,[6],32 µg/mL
same,MIC,[7],4 µg/mL
same,MIC50,[7],4 µg/mL
same,MIC90,[7],4 µg/mL
same,MIC,[8],4 µg/mL
same,MIC50,[8],4 µg/mL
same,MIC90,[8],8 µg/mL
same,MIC,[9],4 µg/mL
same,MIC50,[9],4 µg/mL
same,MIC90,[9],8 µg/mL
same,MIC,[10],8 µg/mL
same,MIC50,[10],8 µg/mL
same,MIC90,[10],8 µg/mL
same,MIC,[11],4 µg/mL
same,MIC50,[11],4 µg/mL
same,MIC90,[11],8 µg/mL
same,MIC50,[12],4 µg/mL
same,MIC90,[12],8 µg/mL
same,MIC50,[13],4 µg/mL
same,MIC90,[13],8 µg/mL
same,MIC90,[14],16 µg/mL
same,MIC,"[14]; Fusarium sp., 48 h",4 µg/mL
same,MIC50,"[14]; Fusarium sp., 48 h",4 µg/mL
same,MIC90,[14]; [19],8 µg/mL
same,MIC,[15],32 µg/mL
same,MIC50,[15],32 µg/mL
same,MIC90,[15],32 µg/mL
same,MIC,[16],4 µg/mL
same,MIC50,[16],4 µg/mL
same,MIC90,[16],4 µg/mL
same,MIC,[17],32 µg/mL
same,MIC50,[17],32 µg/mL
same,MIC90,[17],32 µg/mL
same,MIC,[18],8 µg/mL
same,MIC50,[18],8 µg/mL
same,MIC90,[18],32 µg/mL
CC[C@@H]([C@H](C)O)n1ncn(-c2ccc(N3CCN(c4ccc(OC[C@@H]5CO[C@@](Cn6cncn6)(c6ccc(F)cc6F)C5)cc4)CC3)cc2)c1=O [POSACONAZOLE],MIC90,[14]; [19],> 8 µg/mL
CN(C/C=C/C#CC(C)(C)C)Cc1cccc2ccccc12 [TERBINAFINE],MIC90,[14]; [19],8 µg/mL
C[C@@H](c1ncncc1F)[C@](O)(Cn1cncn1)c1ccc(F)cc1F [VORICONAZOLE],MIC90,[14]; [19],2 µg/mL
THIMEROSAL,MIC50,[1],0.0156 µg/mL
same,MIC90,[1],0.0313 µg/mL
same,MIC50,[2],0.0156 µg/mL
same,MIC90,[2],0.0313 µg/mL
same,MIC50,[3],0.0156 µg/mL
same,MIC90,[3],0.0313 µg/mL
same,MIC50,[4],0.0156 µg/mL
same,MIC90,[4],0.0313 µg/mL
same,MIC50,[5],0.0156 µg/mL
same,MIC90,[5],0.0313 µg/mL
same,MIC50,[6],0.0625 µg/mL
same,MIC90,[6],0.0625 µg/mL
same,MIC50,[7],0.0156 µg/mL
same,MIC90,[7],0.0313 µg/mL
same,MIC50,[8],0.0156 µg/mL
same,MIC90,[8],0.0313 µg/mL
same,MIC50,[9],0.0156 µg/mL
same,MIC90,[9],0.0313 µg/mL
same,MIC50,[10],0.0156 µg/mL
same,MIC90,[10],0.0313 µg/mL
same,MIC50,[11],0.0156 µg/mL
same,MIC90,[11],0.0313 µg/mL
same,MIC50,[12],0.0156 µg/mL
same,MIC90,[12],0.0313 µg/mL
same,MIC50,[13],0.0156 µg/mL
same,MIC90,[13],0.0313 µg/mL
same,MIC50,[14],0.0156 µg/mL
same,MIC90,[14],0.0313 µg/mL
same,MIC50,[15],0.0625 µg/mL
same,MIC90,[15],0.0625 µg/mL
same,MIC50,[16],0.0313 µg/mL
same,MIC90,[16],0.0625 µg/mL
same,MIC50,[17],0.0625 µg/mL
same,MIC90,[17],0.0625 µg/mL
same,MIC50,[18],0.0156 µg/mL
same,MIC90,[18],0.0625 µg/mL
